Results on six compounds are retold here after US11802108B2, “Compounds for the modulation of cyclophilins function” (The University Court of The University of Edinburgh, priority 2018, dated 2023).

The target in data set [1] is T1, CypA (Homo sapiens (Human), UniProt P62937). As to the kind of experiment: Isothermal titration calorimetry (ITC) binding to CypA. To be noted: 25° C. The method, then:
All ITC experiments for the ester series compounds were carried out at 25° C. on a MicroCal Auto iTC200 (GE Healthcare) instrument. The buffer used in the titrations of the compounds belonging to the ester series was 50 mM phosphate buffer, pH 6.5 and the concentration of DMSO was 2% v/v for all the compounds, unless otherwise stated in Table 51. Final compound solutions were heated to 65° C. and/or sonicated prior to the experiment. Each experiment consisted of an initial injection of 0.4 μL followed by nineteen 2 μL injections and in most of cases for these compounds, the “continue injections” protocol was used leaving the cell intact and performing a second series of titrations using the above protocol to achieve saturation. Control experiments were performed, where each compound was titrated into buffer and when small amount of heat was detected due to heat of dilution, it was subtracted when processing the data using a linear fit method. In all cases the first injection was omitted from the data processing. All data were analysed using the MicroCal PEAQ-ITC Analysis software.
The buffer used for these titrations was: PBS, 0.05% v/v P20 surfactant, 50 μM EDTA in presence of 2% v/v EtOH and the pH was set to 7.4.
Background: ITC needs no label: the signal is the heat of the interaction.

A further data set deals with CypD (Homo sapiens (Human), UniProt P30405). As to the kind of experiment: Surface plasmon resonance (SPR) binding to His-CypD. The settings on record: 25° C., triplicate. The method, then: (§1) SPR measurements were performed on a BIAcore T200 instrument (GE Healthcare). Ni^2+-nitrilotriacetic acid (NTA) sensor chips, 1-ethyl-3-(3-[…]) carbodiimide hydrochloride (EDC) and Nhydroxysuccinimide (NHS) were purchased from GE Healthcare.
(§2) Pure His-cyclophilins were immobilized and covalently stabilized on the NTA sensor chip according to the protocol described in Thermo-kinetic analysis space expansion for cyclophilin-ligand interactions—identification of a new nonpeptide inhibitor using Biacore T200.
(§3) Single cycle kinetic titration binding experiments were performed using SPR in triplicate at 25° C. […] The sensor surface was regenerated between experiments by dissociating any formed complex in running buffer for at least 1,200 seconds.
(§4) Kinetic titration binding experiments were performed in triplicate at 25° C. […] The sensor surface was regenerated between experiments by dissociating any formed complex in running buffer for at least a further 600 seconds.
(In SPR one partner is held on a chip, and binding of the other changes the refractive index at the surface.)

Data set [2] has as its system MDA-MB-231 cells. As to the kind of experiment: Cytotoxicity (cell death, Draq7) in MDA-MB-231 cells. The format is cell-based. The method, then:
(§5) The latter medium with 2000 U/mL IL-2 was used for NK92 cell killing assays.
(§6) To determine the direct effect of the compounds on cell proliferation, cells were seeded at a density of 500 cells per well in cell culture medium in 384-well cell culture plates and allowed to adhere overnight (about 16 hours), incubated in a humidified atmosphere with 5% CO2. Subsequently, cell culture medium was refreshed, supplemented with Draq 7 (3 μM final concentration) and test compound at the indicated concentrations with three wells being treated for each condition tested. Cells were then returned to the cell culture incubator and imaged with a 10× objective every 3 hours for 120 hours using an IncuCyte ZOOM microscope from Essen Bioscience.
(§7) Using the IncuCyte ZOOM software, custom image analysis procedures were developed and applied for each cell line to determine cell confluency, cell number and number of dead cells over the time course of the experiment.
(§8) Statistical analyses in cell viability assays to compare the effect of compound treatment to treatment with vehicle were performed using GraphPad Prism 6 (2-way ANOVA with Bonferroni correction post hoc).

Another data set concerns NK92 cells. The data set can be described thus: Proliferation of NK92 cells. The data set is classed as cell-based. The method, then:
as §5
(§9) NK92 cells were then added at a density of 1000 cells per well and 10 μM test compound was added. Cells were imaged with a 10× objective every 3 hours for 120 hours using an IncuCyte ZOOM microscope from Essen Bioscience.
(§10) Apoptotic fraction of the population (number of nuclei with co-localized red and green fluorescence divided by total number of red nuclei in the population) and fold increase in number of red nuclei were determined at various time points.

Another data set has as its system IMR-90 cells. As to the kind of experiment: Cytotoxicity (cell death, Draq7) in IMR-90 cells. The format is cell-based. The method, then:
as §5, §6, §7, §8

In data set [3] the target is T1, CypA. As to the kind of experiment: Surface plasmon resonance (SPR) binding to His-CypA. The settings on record: 25° C., triplicate. The method, then:
as §1, §2, §3, §4

Data set [4] concerns MDA-MB-231 cells in presence of NK92 cells. The data set can be described thus: NK92 immune cell killing of MDA-MB-231 cancer cells. The settings on record: with NK92 cells. The data set is classed as cell-based. The procedure: as §5, §9, §10
The target of data set [5] is T1, CypA. The data set can be described thus: X-ray co-crystal structure with CypA. Also: key: Y: observed in cocrystal; N: not observed in cocrystal. To be noted: apo CypA crystals soaked with 5 mM ligand. The format is binding. The procedure: Purified and his-tag-cleaved CypA was buffer-exchanged into PBS and concentrated to ˜29 mg ml^−1. For crystallisation 1 μL of protein was mixed with an equal volume of the well solution, consisting of 100 mM Tris-HCl pH8.0 and 20-22% v/v PEG 8000, and crystal formation came about after equilibration overnight in 6° C. by vapour diffusion using the hanging drop method over 1 mL of the same well solution. Apo CypA crystals were soaked overnight into different ligand solution consisting of 100 mM Tris-HCl pH 8.0, 35% w/v PEG 8000, 5% v/v Glycerol, 5% v/v DMSO and 5 mM ligand, before flash frozen into liquid nitrogen. X-ray data were collected at the Diamond synchrotron-radiation facility in Oxford-shire, England at 100K. Structures were solved by molecular replacement using DIMPLE from the CCP4i suite. Modelled structures were visualised and manually adjusted as needed using Coot10 and further refined using REFMAC5 from CCP4i.
FIG. 1A summarises the mode of binding of certain prior-art urea small molecule Cyp inhibitors.

The target in the next data set is CypB (Homo sapiens (Human), UniProt P23284). The data set can be described thus: Surface plasmon resonance (SPR) binding to His-CypB. The settings on record: 25° C., triplicate. The method, then: as §3, §4
Data set [6] deals with MDA-MB-231 cells. As to the kind of experiment: Growth inhibition (GI50) of MDA-MB-231 cells, IncuCyte imaging. The format is cell-based. The settings on record: MDA-MB-231, 120 hours imaging. The procedure: as §5, §6, §7, §8

T1 sequence (P62937 whole entry): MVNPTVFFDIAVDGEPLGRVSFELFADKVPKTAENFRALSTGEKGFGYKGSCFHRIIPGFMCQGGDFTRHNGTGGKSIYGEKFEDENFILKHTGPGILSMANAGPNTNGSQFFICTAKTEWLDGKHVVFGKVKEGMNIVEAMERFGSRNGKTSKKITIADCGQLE
Chain of CypB (P23284 34-216): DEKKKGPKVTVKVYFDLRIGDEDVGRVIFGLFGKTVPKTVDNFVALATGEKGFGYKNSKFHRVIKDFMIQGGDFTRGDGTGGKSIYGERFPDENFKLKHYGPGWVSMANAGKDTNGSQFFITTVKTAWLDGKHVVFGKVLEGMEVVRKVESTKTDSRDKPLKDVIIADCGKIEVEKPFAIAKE
Chain of CypD (P30405 30-207): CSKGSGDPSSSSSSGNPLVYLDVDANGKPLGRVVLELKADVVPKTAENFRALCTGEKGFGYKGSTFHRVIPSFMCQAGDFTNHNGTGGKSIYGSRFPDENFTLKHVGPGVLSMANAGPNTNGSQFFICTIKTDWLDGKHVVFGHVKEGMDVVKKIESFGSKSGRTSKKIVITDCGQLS

Take `C#CCN(Cc1ccc(N)cc1)C(=O)NCC(=O)N1CCCC1c1ccccc1Br.Cl` (stereo not drawn) [Compound 1, 1-[(4-aminophenyl)methyl]-3-{2-[2-(2-bromophenyl)pyrrolidin-1-yl]-2-oxoethyl}-1-(prop-2-yn-1-yl)urea hydrochloride]: the Kd amounted to 2 ± 1 µM on CypA [1], 0.2 ± 0.1 µM at CypD, 3.2 ± 1.3 µM at CypA [3] and 1.4 ± 0.4 µM on CypB. The “Toxicity MDA-MB-231 @10 μM” value in the data set on MDA-MB-231 cells [2] is listed as “N”. In addition, in the data set with NK92 cells, the “Fold increase in NK92 cells after 72 h @ 10 μM” value came out at 4.3 ± 0.7. Also, the “Toxicity IMR-90 @10 μM” value in the data set on IMR-90 cells was “N”. In addition, the “Apoptotic fraction of the MDA-MB-231 population in the presence of NK92 cells after 72 h @ 10 μM” value in data set [4] was found to be 0.64 ± 0.03. Also, the “Fold increase MDA-MB-231 cells in presence of NK92 cells after 72 h @ 10 μM” value in data set [4] is recorded as 2.0 ± 0.3. In addition, the “CypA X-ray co-crystal” value on CypA [5] is recorded as “Y”. This compound returned a GI50 in the data set with MDA-MB-231 cells [6] (Homo sapiens) of 5.1 ± 0.9 µM.

Take `C/C=C/CC(C)C(O)C1C(=O)NC(CC)C(=O)N(C)CC(=O)N(C)C(CC(C)C)C(=O)NC(C(C)C)C(=O)N(C)C(CC(C)C)C(=O)NC(C)C(=O)NC(C)C(=O)N(C)C(CC(C)C)C(=O)N(C)C(CC(C)C)C(=O)N(C)C(C(C)C)C(=O)N1C` (stereo not drawn) [CsA, Cyclosporin A, reference compound]: the “Apoptotic fraction of the MDA-MB-231 population in the presence of NK92 cells after 72 h @ 10 μM” value in [4] is recorded as 0.38 ± 0.01. This compound returned a GI50 in the data set with MDA-MB-231 cells [6] of 6.2 ± 0.8 µM.

Take `CCOC(=O)Cn1cc(CN(Cc2ccc(N)cc2)C(=O)NCC(=O)N2CCCC2c2ccccc2Br)nn1.Cl` (stereo not drawn) [Compound 5, Ethyl 2-[4-({[(4-aminophenyl)methyl]({2-[2-(2-bromophenyl)pyrrolidin-1-yl]-2-oxoethyl}carbamoyl)amino}methyl)-1H-1,2,3-triazol-1-yl]acetate hydrochloride]: the Kd is roughly 3 µM at CypA [1], 1 ± 0.4 µM at CypD, 4.3 ± 1 µM at CypA [3] and 1.9 ± 0.9 µM at CypB. The “CypA X-ray co-crystal” value at CypA [5] is reported as “N”.

The compound `C#CCN(Cc1ccc(N)cc1)C(=O)NCC(=O)OCC` [Compound 22, Ethyl 2-({[(4-aminophenyl)methyl](prop-2-yn-1-yl)carbamoyl}amino)acetate] came in with a Kd at CypA [1] greater than 1000 µM. The “CypA X-ray co-crystal” value on CypA [5] is listed as “Y”.

`CCOC(=O)CCn1cc(CN(Cc2ccc(N)cc2)C(=O)NCC(=O)N2CCCC2c2ccccc2Br)nn1.Cl` (stereo not drawn) [Compound 6, Ethyl 3-[4-({[(4-aminophenyl)methyl]({2-[2-(2-bromophenyl)pyrrolidin-1-yl]-2-oxoethyl}carbamoyl)amino}methyl)-1H-1,2,3-triazol-1-yl]propanoatehydrochloride]: the affinity on CypA [1], expressed as Kd, was 0.3 ± 0.08 µM. Moreover, the “CypA X-ray co-crystal” value on CypA [5] was “N”.

On CypA [1], `CCOC(=O)CNC(=O)N(CC#N)Cc1ccc(N)cc1.Cl` [Compound 13, Ethyl 2-({[(4-aminophenyl)methyl](cyanomethyl)carbamoyl}amino)acetate hydrochloride] displayed a Kd of 990 ± 20 µM. Moreover, the “CypA X-ray co-crystal” value at CypA [5] is listed as “Y”.

The Kd is the free concentration of one partner at which half of the binding sites on the other are occupied at equilibrium, for simple one-to-one binding. A higher Kd goes with weaker binding. As a reminder, the GI50 is the concentration at which growth is held to half of that of the control.
